pIC50: −log10 of the molar value.
Assays:
[1] = from [2H]C([2H])([2H])n1c(=O)n([C@H]2CC[C@@](CC=C)(NC(=O)[C@H]3C[C@H]3F)CC2)c2c3c(-c4ccc(OCCC=C)cc4)cn(S(=O)(=O)c4ccccc4)c3ncc21, rcm bond, Grubbs catalyst 2nd generation, dichloromethane, 19.0 mM, 40.0 °C
[2] = biological target: T1, pseudo-kinase domain (JH2, amino-acids 536-812) of human Wild Type JAK2 (Homo sapiens, UniProt O60674, F794H/W659A/W777A); assay: JAK2 LanthaScreen JH2-WT Binding Assay; settings: 50 nM tracer, read-out: JH2BIND_WT IC50
T1 construct: pseudo-kinase domain (JH2, amino-acids 536-812 with 3 surface mutations W659A, W777A, F794H); His (C); purchased BPS Bioscience 79463; host or cells: baculovirus expression system
T1 sequence (O60674 536-812 W659A/W777A/F794H): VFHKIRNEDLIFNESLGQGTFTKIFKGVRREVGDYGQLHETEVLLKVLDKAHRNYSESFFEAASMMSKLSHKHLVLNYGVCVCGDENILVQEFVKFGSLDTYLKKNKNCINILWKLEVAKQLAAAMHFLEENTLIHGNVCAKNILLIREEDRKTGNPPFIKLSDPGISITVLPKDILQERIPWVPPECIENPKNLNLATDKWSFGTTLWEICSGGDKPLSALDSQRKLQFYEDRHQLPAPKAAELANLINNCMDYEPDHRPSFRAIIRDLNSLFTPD
Method: Example B. JAK2 LanthaScreen JH2-WT Binding Assay
(§1) JAK2 JH2-WT binding assay utilizes pseudo-kinase domain (JH2, amino-acids 536-812 with 3 surface mutations W659A, W777A, F794H) of human Wild Type JAK2 expressed as C-terminal His-Avi-tagged, biotinylated protein in a baculovirus expression system (BPS Bioscience, Catalog #79463). The assay was conducted in black 384-well polystyrene plates in a final reaction volume of 20 μL. JAK2 JH2-WT (0.145 nM) was incubated with compounds (100 nL serially diluted in DMSO) in the presence of 50 nM Fluorescent JAK2-JH2 Tracer (MedChem Express Catalog #HY-102055) and 0.25 nM Streptavidin-Tb cryptate (Cisbio Part #610SATLB) in assay buffer (50 mM Tris, pH=7.5, 10 mM MgCl2, 0.01% Brij-35, 0.1% BSA, 1 mM EGTA, 5% Glycerol and 5 mM DTT). Non-specific binding was accessed in the presence of 2 mM ATP. After incubation for 1 hour at 25° C., LanthaScreen signals were read on a PHERAstar FS plate reader (BMG LABTECH). Data was analyzed with IDBS XLfit and GraphPad Prism 5.0 software using a four parameter dose response curve to determine IC50 for each compound.

[3] = biological target: T2, catalytic domain (JH1, amino acids 808-1132) of human JAK2 (Homo sapiens, UniProt O60674); assay: JAK2 HTRF Enzyme Activity Assay; type: biochemical; settings: ATP 30 μM; read-out: ENZ 30UMATP IC50
T2 construct: catalytic domain (JH1, amino acids 808-1132) of human JAK2; His (N); purchased BPS Bioscience 40450; host or cells: baculovirus expression system
T2 sequence (O60674 808-1132): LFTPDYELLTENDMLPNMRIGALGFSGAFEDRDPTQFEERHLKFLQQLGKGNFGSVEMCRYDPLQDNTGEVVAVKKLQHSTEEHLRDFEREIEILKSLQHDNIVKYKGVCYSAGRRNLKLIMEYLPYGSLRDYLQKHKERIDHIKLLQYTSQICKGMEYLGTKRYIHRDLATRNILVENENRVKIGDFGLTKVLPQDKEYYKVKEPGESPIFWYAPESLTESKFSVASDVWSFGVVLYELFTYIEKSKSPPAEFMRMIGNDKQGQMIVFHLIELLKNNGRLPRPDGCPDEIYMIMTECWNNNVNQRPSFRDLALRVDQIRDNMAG
Method: Example D. JAK2 HTRF Enzyme Activity Assay
JAK2 enzyme activity assays utilize catalytic domain (JH1, amino acids 808-1132) of human JAK2 expressed as N-terminal His-tagged protein in a baculovirus expression system (BPS Bioscience, Catalog #40450). The assays was conducted in black 384-well polystyrene plates in a final reaction volume of 20 μL. JAK2 (0.015 nM) was incubated with compounds (100 nL serially diluted in DMSO) in the presence of ATP (30 μM or 1 mM) and 500 nM Biotin-labeled EQEDEPEGDYFEWLE (SEQ ID NO.: 1) peptide (BioSource International, custom synthesis) in assay buffer (50 mM Tris, pH=7.5, 10 mM MgCl2, 0.01% Brij-35, 0.1% BSA, 1 mM EGTA, 5% Glycerol and 5 mM DTT) for 60 minutes at 25° C. The reactions were stopped by the addition of 10 μL of detection buffer (50 mM Tris, pH 7.8, 0.5 mg/mL BSA, 150 mM NaCl), supplemented with EDTA, LANCE Eu-W1024 anti-phosphotyrosine (PY20), (PerkinElmer, Catalog #AD0067) and Streptavidin SureLight APC (PerkinElmer Catalog #CR130-100), for a final concentration of 15 mM, 1.5 nM and 75 nM, respectively. HTRF signals were read after 30 minutes incubation at room temperature on a PHERAstar FS plate reader (BMG LABTECH). Data was analyzed with IDBS XLfit and GraphPad Prism 5.0 software using a four parameter dose response curve to determine IC50 for each compound. The compounds of the disclosure were tested in one or more of the assays described in Examples A-D, and the resulting data are shown in Table A.

[4] = biological target: T3, catalytic domain (JH1, amino acids 826-1132) of human JAK2 (Homo sapiens, UniProt O60674); assay: JAK2 LanthaScreen JH1 binding assay; settings: JAK2 JH1, 50 nM tracer; read-out: JH1BIND IC50
T3 construct: catalytic domain (JH1, amino acids 826-1132) of human JAK2; FLAG (N); purchased Carna Biosciences 08-445-20N; host or cells: baculovirus expression system
T3 sequence (O60674 826-1132): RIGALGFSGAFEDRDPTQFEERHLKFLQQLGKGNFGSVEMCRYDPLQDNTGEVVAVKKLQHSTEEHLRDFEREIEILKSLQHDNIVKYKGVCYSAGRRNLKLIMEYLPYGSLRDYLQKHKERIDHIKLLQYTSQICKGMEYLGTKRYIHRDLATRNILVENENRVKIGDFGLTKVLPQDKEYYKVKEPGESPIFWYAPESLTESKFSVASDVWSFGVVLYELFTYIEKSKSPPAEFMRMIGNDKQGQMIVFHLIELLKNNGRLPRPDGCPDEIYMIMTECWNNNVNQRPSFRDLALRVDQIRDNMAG
Method: Example A. JAK2 LanthaScreen […] Binding Assay
JAK2 JH1 binding assay utilizes catalytic domain (JH1, amino acids 826-1132) of human JAK2 expressed as N-terminal FLAG-tagged, biotinylated protein in a baculovirus expression system (Carna Biosciences, Product #08-445-20N). The assay was conducted in black 384-well polystyrene plates in a final reaction volume of 20 μL. JAK2 JH1 (1.5 nM) was incubated with compounds (100 nL serially diluted in DMSO) in the presence of 50 nM fluorescent JAK2-JH1 tracer and 0.5 nM Streptavidin-Tb cryptate (Cisbio Part #610SATLB) in assay buffer (50 mM Tris, pH=7.5, 10 mM MgCl2, 0.01% Brij-35, 0.1% BSA, 1 mM EGTA, […] and 5 mM DTT). Non-specific binding was accessed in the presence of 2 mM ATP. After incubation for 2 hours at 25° C., LanthaScreen signals were read on a PHERAstar FS plate reader (BMG LABTECH).
Data was analyzed with IDBS XLfit and GraphPad Prism 5.0 software using a four parameter dose response curve to determine IC50 for each compound.

[5] = biological target: T4, pseudo-kinase domain (JH2, amino-acids 536-812) of human V617F mutant JAK2 (Homo sapiens, UniProt O60674, F794H/V617F/W659A/W777A); assay: JAK2 LanthaScreen JH2-V617F Binding Assay; settings: 50 nM tracer, read-out: JH2BINDING—V617F IC50
T4 construct: pseudo-kinase domain (JH2, amino-acids 536-812 with 3 surface mutations W659A, W777A, F794H); His (C); purchased BPS Bioscience 79498; host or cells: baculovirus expression system
T4 sequence (O60674 536-812 V617F/W659A/W777A/F794H): as the sequence (O60674 536-812 W659A/W777A/F794H) above, with V82F counted along it
Method: Example C. JAK2 LanthaScreen JH2-V617F Binding Assay
as §1, with “JH2-V617F” for “JH2-WT”, “V617F mutant” for “Wild Type”, “#79498).” for “#79463).”, “JH2-V617F (0.26” for “JH2-WT (0.145”

Row | Structure (SMILES) | ring closure, yield of all isomers [1] | pIC50 [2] | pIC50 [3] | pIC50 [4] | pIC50 [5]
1 | [2H]C([2H])([2H])n1c(=O)n2c3c4c(cn(S(=O)(=O)c5ccccc5)c4ncc31)-c1ccc(cc1)OCCC=CC[C@]1(NC(=O)[C@H]3C[C@H]3F)CC[C@@H]2CC1 | 98% |  |  |  | 
2 | [2H]C([2H])([2H])n1c(=O)n2c3c4c(c(-c5cn(C)nc5OC)[nH]c4ncc31)-c1ccc(cc1)OCC/C=C/C[C@]1(NC(=O)C3CC3)CC[C@@H]2CC1 [Example 2, N-((3^1s,3^4s,E)-2^7-(3-Methoxy-1-methyl-1H-pyrazol-4-yl)-2^3-(methyl-d3)-2^2-oxo-2^1,2^2,2^3,2^6-tetrahydro-9-oxa-2(8,1)-imidazo[4,5-d]pyrrolo[2,3-b]pyridina-1(1,4)-benzena-3(1,4)-cyclohexanacyclononaphan-5-en-3^4-yl)cyclopropanecarboxamide] |  | ≥ 8.00 | < 6.00 | < 6.00 | ≥ 8.00
3 | [2H]C([2H])([2H])n1c(=O)n2c3c4c(c(-c5cn(CC)nc5F)[nH]c4ncc31)-c1ccc(cc1)OCCC(O)CC[C@]1(NC(=O)[C@H]3C[C@H]3F)CC[C@@H]2CC1 (stereo partly drawn) [Example 9, (1R,2R)—N-((3^1S,3^4s)-2^7-(1-Ethyl-3-fluoro-1H-pyrazol-4-yl)-6-hydroxy-2^3-(methyl-d)-2^2-oxo-2^1,2^2,2^3,2^6-tetrahydro-9-oxa-2(8,1)-imidazo[4,5-d]pyrrolo[2,3-b]pyridina-1(1,4)-benzena-3(1,4)-cyclohexanacyclononaphane-3^4-yl)-2-fluorocyclopropane-1-carboxamide] |  | ≥ 8.00 | < 6.00 | 6.00 to 6.30 | ≥ 8.00
